Results taken from US20220372013A2, “PIPERIDINE-2,6-DIONE DERIVATIVES AND CROHN'S DISEASE TREATING” (Tianjin Hemay Pharmaceutical Sci-Tech Co., Ltd, priority 2016, published 2022).
Read-outs that look alike come from different tables or passages of the source.

Experiments:
[1] = test system: DNBS-Induced Inflammatory Bowel Disease Models in Rats; assay: Biological Example 4: DNBS-induced inflammatory bowel disease models in rats; assay type: in vivo, Wistar rats; conditions: 30 mg/Kg i.g. qd × 7; for Body weight: Mean ± SD; for inhibition in vivo at 30 mg/kg: Rattus norvegicus, po, 168 h
Method: 102 male Wistar rats were fasted for 72 hours. A 5% glucose injection was administered subcutaneously twice during fasting. 88 rats with normal conditions and moderate body weight were selected from the fasting rats. The animals were randomly divided into 11 groups according to the body weight (see Table 11. Grouped Table).
The animals were anesthetized with ether after 72 hours fasting. A specially made gavage device was slowly inserted into the enteric cavity at 8 cm from the anus. The model control group and each test group were administered with 0.5 mL of 50 mg/mL DNBS in 30% ethanol solution. The normal control group was administered with 0.5 mL of 30% ethanol solution. The animals were inverted in anesthesia for 15 minutes. The day when the model was prepared was day 0 of the experiment. After 4 hours of DNBS induction, the corresponding drug or the corresponding volume of 1% CMC-Na was administered once per day. On day 7 of the experiment, the animals were euthanized to score the colon adhesion degree, measure the length of colon and ulcer area, weigh colon and calculate the colon weight to length ratio.
One-way ANOVA analysis of the length of colon and colon weight per length of rats was performed by SPSS22. Statistical analyses between groups were performed. The adhesion degree was scored. Mann-Whitney U non-parametric test was performed on ulcer area. Statistical analyses between groups were performed.
Calculation Formula of Inhibitory rate of weight increase per length: (Colon weight to length ratio in model group−Colon weight to length ratio in administration group)/(Colon weight to length ratio in model group−Colon weight to length ratio in blank group)

[2] = test system: DNBS-Induced Inflammatory Bowel Disease Models in Rats; assay: Biological Example 2: DNBS-induced inflammatory bowel disease models in rats; assay type: in vivo, Wistar rats
Method: 110 male Wistar rats were fasted for 40 hours. A 5% glucose injection (10 mL/Kg) was administered subcutaneously during fasting. 48 rats with normal conditions and moderate body weight were selected from the fasting rats. The animals were randomly divided into […] according to the body weight: normal control group, model control group, sulfasalazine group (300 mg/Kg), dexamethasone group (0.1 mg/Kg), the compound in Example 26 group (30 mg/kg) and the compound in Example 27 group (30 mg/kg), with 8 rats in each group. The animals were anesthetized with isoflurane. A specially made gavage device (made by a rat gavage device having the diameter of 2 mm, which was nested on a mouse gavage device having the diameter of 1 mm) was slowly inserted into the enteric cavity at 8 cm from the anus. The model control group, the compound in Example 26 group and the compound in Example 27 group were administered with 0.5 mL of 50 mg/mL DNBS in 30% ethanol solution. The normal control group was administered with 0.5 mL of 30% ethanol solution. The animals were inverted in anesthesia for 15 minutes after the gavage device was removed. The day when the model was prepared was the first day of the experiment. After 4 hours of DNBS induction, the corresponding drug or the corresponding volume of 1% CMC-Na was administered once per day. On the sixth day of the experiment, the animals were euthanized to observe the results of each index so as to score the colon adhesion degree, measure the length of colon and ulcer area, weigh colon and calculate the colon weight to length ratio.
The compound in Example 26 and Example 27, sulfasalazine and dexamethasone: Preparation Method: Suspended with 1% CMC-Na, and prepared when it was needed.
Levene's Test for homogeneity of data was performed with Spss. Where the data were homogeneous (P>0.05), one-way ANOVA LSD test was performed. Where the analysis of variance was significant (P≤0.05), Dunnett's multiple comparison (parameter method) was performed. Where the results of Levene's Test were significant (P≤0.05), Kruskal-Wallis nonparametric test was performed. Where the results of Kruskal-Wallis nonparametric test were significant (P≤0.05), Mann-Whitney U test was performed for pairwise comparison.

[3] = 30 mg/Kg i.g. qd × 6, sixth day, Mean ± SD

Q: Which results are given for COCCN1C(=O)CCC(N2C(=O)c3cccc(N)c3C2=O)C1=O (centres unmarked) [Example 27, 4-amino-2-(1-(2-methoxyethyl)-2,6-dioxopiperidin-3-yl)isoindolin-1,3-dione]?
A: Colon weight to length ratio ([1]; day 7): 106 ± 14 mg/cm; Ulcer area of colon ([1]; day 7): 0.4 ± 0.6 cm^2; Body weight ([1]; Day 1): 125.5 ± 8.4 g; Body weight ([1]; Day 2): 124.4 ± 8.1 g; Body weight ([1]; Day 3): 125.8 ± 8.2 g; Body weight ([1]; Day 4): 133.1 ± 9.2 g; Body weight ([1]; Day 5): 141.6 ± 12.0 g; Body weight ([1]; Day 6): 146.7 ± 11.8 g; Body weight ([1]; Day 7): 156.3 ± 11.0 g; inhibition in vivo at 30 mg/kg ([1]; day 7, read-out: Inhibitory rate of ulcer area of colon): 83.3%; inhibition in vivo at 30 mg/kg ([1]; day 7, read-out: Inhibitory rate of weight increase per length): 65.9%; Adhesion Degree [2, 3]: 0.9 ± 0.8 Points; Colon Length [2, 3]: 12.9 ± 2.3 cm; Colon Weight [2, 3]: 1737.9 ± 410.6 mg; Ulcer Area [2, 3]: 2.0 ± 1.9 cm^2; therapeutic effects on the model (in words) ([2]; 30 mg/kg i.g. qd × 6): good therapeutic effects; growth rate of the body weight (in words) ([2]; fourth day of the experiment, compared with model control group, doses as in Table 7): higher than that in the model control group
